Assay results as given in patent US20250213558A1, “T-TYPE CALCIUM CHANNEL MODULATORS COMPRISING A PIPERAZINE OR 1,4-DIAZEPANE CORE AND METHODS OF USE THEREOF” (Praxis Precision Medicines, Inc., priority 2022, published 2025).
Where two headings read alike, the source gives them in different places.

Biological target: T1, Human Cav3.1 calcium channel (Homo sapiens, UniProt O43497)
T1 construct: expressed in transfected cells; host or cells: HEK-293 natClytin/TASK1+Cav3.1 cell line
Experiment: Human Cav3.1 calcium channel patch clamp assay (SyncroPatch 384PE; single point and IC50, voltage dependent block)
Type: cell-based
Conditions: for % Inhibition (Single Point Data): patch clamp
How it was run: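 Automated whole-cell patch clamp at room temperature, cells held at −120 mV; 100 ms step to −20 mV (resting block), then 1600 ms at −65 mV and a second −20 mV step (voltage-dependent block), every 15 s. Peak currents averaged over last 3 sweeps; % inhibition relative to nickel-sensitive current.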

[1] = Testing Conc 1.25, HEK-293 natClytin/TASK1+Cav3.1 cell line
[2] = voltage dependent block (VDB), HEK-293 natClytin/TASK1+Cav3.1 cell line, read-out: Cav3.1 IC50
[3] = Testing Conc 1, HEK-293 natClytin/TASK1+Cav3.1 cell line

T1 sequence (O43497 whole entry): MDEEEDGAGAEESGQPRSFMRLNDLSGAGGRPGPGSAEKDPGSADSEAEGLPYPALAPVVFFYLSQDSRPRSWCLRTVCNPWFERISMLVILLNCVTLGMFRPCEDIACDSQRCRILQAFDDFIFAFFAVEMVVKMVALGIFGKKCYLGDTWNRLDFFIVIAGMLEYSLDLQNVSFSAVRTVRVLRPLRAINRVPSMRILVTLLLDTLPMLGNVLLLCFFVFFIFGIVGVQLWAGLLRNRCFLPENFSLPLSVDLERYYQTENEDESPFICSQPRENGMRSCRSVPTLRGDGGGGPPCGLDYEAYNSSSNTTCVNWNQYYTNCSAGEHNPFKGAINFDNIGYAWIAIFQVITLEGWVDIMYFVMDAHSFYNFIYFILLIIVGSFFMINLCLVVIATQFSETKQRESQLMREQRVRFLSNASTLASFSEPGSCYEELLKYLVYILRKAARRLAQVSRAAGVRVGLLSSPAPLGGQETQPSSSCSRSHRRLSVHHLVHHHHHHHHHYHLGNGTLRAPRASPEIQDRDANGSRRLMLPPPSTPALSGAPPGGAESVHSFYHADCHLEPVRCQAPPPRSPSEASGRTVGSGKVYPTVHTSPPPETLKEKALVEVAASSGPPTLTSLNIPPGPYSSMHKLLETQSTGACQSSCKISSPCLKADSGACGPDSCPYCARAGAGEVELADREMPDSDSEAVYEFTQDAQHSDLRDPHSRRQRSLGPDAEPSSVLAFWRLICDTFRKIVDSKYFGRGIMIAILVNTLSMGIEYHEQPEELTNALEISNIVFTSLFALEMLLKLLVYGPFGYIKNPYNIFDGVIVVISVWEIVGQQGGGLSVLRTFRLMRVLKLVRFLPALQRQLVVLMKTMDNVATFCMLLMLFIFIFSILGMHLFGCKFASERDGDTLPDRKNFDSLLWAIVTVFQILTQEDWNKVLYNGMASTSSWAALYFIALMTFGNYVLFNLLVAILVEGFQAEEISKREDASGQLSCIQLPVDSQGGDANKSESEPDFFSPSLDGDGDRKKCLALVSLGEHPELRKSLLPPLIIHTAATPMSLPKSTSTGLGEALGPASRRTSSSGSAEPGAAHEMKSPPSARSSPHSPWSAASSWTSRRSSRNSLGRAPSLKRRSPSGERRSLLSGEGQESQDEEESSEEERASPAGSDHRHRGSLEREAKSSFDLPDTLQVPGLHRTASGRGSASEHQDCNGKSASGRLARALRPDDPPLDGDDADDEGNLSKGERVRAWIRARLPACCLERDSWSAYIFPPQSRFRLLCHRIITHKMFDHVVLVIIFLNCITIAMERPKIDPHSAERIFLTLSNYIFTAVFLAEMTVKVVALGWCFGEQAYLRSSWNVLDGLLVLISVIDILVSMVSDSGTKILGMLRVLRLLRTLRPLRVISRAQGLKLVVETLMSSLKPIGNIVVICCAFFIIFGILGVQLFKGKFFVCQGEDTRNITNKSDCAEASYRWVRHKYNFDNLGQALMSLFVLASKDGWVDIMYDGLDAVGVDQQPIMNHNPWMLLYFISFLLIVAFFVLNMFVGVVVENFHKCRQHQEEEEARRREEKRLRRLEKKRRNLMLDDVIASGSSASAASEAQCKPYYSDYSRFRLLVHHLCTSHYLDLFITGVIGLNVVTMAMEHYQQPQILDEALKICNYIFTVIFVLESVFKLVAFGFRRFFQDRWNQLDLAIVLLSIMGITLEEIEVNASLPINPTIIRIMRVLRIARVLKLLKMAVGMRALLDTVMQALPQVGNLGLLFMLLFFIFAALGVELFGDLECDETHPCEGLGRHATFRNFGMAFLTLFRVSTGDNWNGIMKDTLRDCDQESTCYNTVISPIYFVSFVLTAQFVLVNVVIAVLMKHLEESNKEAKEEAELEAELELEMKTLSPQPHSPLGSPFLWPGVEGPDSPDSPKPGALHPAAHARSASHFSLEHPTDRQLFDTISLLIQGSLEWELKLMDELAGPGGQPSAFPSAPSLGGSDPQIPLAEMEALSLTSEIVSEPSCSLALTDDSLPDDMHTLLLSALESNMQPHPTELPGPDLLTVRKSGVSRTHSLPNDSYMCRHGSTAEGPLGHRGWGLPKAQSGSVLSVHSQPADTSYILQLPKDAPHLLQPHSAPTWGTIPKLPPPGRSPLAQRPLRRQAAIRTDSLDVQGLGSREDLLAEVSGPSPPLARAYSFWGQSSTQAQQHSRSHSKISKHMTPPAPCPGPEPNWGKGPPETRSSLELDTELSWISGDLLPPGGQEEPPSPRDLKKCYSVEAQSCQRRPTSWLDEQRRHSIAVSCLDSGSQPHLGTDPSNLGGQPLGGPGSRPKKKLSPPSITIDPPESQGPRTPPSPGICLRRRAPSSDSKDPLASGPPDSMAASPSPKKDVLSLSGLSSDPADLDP

Row | SMILES | % Inhibition (Single Point Data) [1] | IC50 | IC50 [2] | % Inhibition (Single Point Data) [3]
1 | CC1(CCN2C3CC2CN(Cc2nc4c(Cl)cc(F)cc4[nH]2)C3)CCC1 [Compound 109] | 98.531% |  |  | 
2 | CC(C)(C)NC(=O)CN1C2CC1CN(Cc1nc3c(OC(F)F)ccc(F)c3[nH]1)C2 [Compound 173] | 94.854% | < 78.2 nM |  | 
3 | CC(C)(C)NC(=O)CN1C[C@@H]2C[C@H]1CN2CC(=O)NC12CC3CC(C1)CC(OC(F)F)(C3)C2 [Compound 346] | 86.624% |  | 399 nM | 
4 | O=C(CN1C2CC1CN(Cc1nc3c(Cl)cc(F)cc3[nH]1)C2)NC1(C(F)(F)F)COC1 [Compound 182] | 92.993% | 64.8 nM |  | 
5 | O=C(CN1CC2CC(C1)N2CC(=O)NC1(C(F)(F)F)CC1)Nc1ccc(F)c(OC(F)(F)F)c1 [Compound 243] | 93.979% |  | 137 nM | 
6 | CC(C)(NC(=O)CN1C[C@@H]2C[C@H]1CN2CC(=O)Nc1ccc(F)c(Cl)c1)C(F)(F)F [Compound 24] | 92.08% |  | 185 nM | 
7 | CC(C)(C)NC(=O)CN1C2CC1CN(CC(=O)Nc1cc(F)c(F)c(OC(F)F)c1)C2 [Compound 360] |  |  | 76 nM | 
8 | Cc1ccc(NC(=O)CN2C[C@@H]3C[C@H]2CN3CC(=O)NC2(C(F)(F)F)CC2)cc1Cl [Compound 355] |  |  | 1070 nM | 
9 | C[C@H](c1nc2c(Cl)cc(F)cc2[nH]1)N1CC2CCC(C1)N2CC(=O)NC(C)(C)C [Compound 118] | 102.64% |  |  | 
10 | COc1cc(NC(=O)CN2CC3CC(C2)N3CC(=O)NC2(C(F)(F)F)CC2)ccc1F [Compound 257] | 89.324% |  | 232 nM | 
11 | O=C(CN1CC2CC1CN2CC(=O)NC1(C(F)(F)F)CC1)Nc1cc(F)cc(OC(F)F)c1 (stereo not drawn) [Compound 56] | 70.217% |  | 297 nM | 
12 | CC(C)(C)NC(=O)CN1CCN(Cc2cnc(-c3ccccc3)[nH]2)CC1 [Compound 43] |  |  |  | 29.301%
13 | CC(C)(C)NC(=O)CN1C[C@@H]2C[C@H]1CN2CC(=O)Nc1cc(F)c(F)c(Cl)c1 [Compound 348] |  |  | < 78.2 nM | 
14 | CC(C)(C)NC(=O)CN1C2CC1CN(Cc1nc3c(Cl)cc(N)cc3o1)C2 [Compound 111] | 35.454% |  |  | 
15 | O=C(CN1CCN(CC(=O)NC2(C(F)(F)F)CC2)CC1)Nc1cc(F)cc(OC(F)F)c1 [Compound 54] | 39.211% |  | 1560 nM | 
16 | O[C@H]1CC[C@H](OCCN2C3CC2CN(Cc2nc4c(Cl)cc(F)cc4[nH]2)C3)CC1 [Compound 133] | 72.888% |  | 553 nM | 
17 | Cc1cc(Cl)cc(NC(=O)CN2C[C@@H]3C[C@H]2CN3CC(=O)NC2(C(F)(F)F)CC2)c1 [Compound 327] | 87.352% |  | 289 nM | 
18 | Cc1ccc(NC(=O)CN2C[C@@H]3C[C@H]2CN3CC(=O)NC(C)(C)C)cc1Cl [Compound 362] |  |  | 371 nM | 
19 | Cc1cccc2[nH]c(C(C)N3CC4CCC(C3)N4CC(=O)NC(C)(C)C)nc12 (stereo not drawn) [Compound 198] | 71.858% |  | 415 nM | 
20 | CC(C)(C)NC(=O)CN1C[C@@H]2CC[C@H]1CN2CC(=O)Nc1ccc(F)c(Cl)c1 [Compound 271] | 70.509% |  | 581 nM | 
21 | COc1ccc(F)c2[nH]c(CN3CC4CC(C3)N4CC(=O)NC(C)(C)C)nc12 [Compound 175] | 89.419% |  | 147 nM | 
22 | CC(C)(C)NC(=O)CN1CCCN(CC(=O)Nc2cc(F)cc(Cl)c2)CC1 [Compound 34] |  |  |  | 51.943%
23 | O=C(CN1CC2CC(C1)N2CC1(O)CCC(F)(F)CC1)NC12CC3CC(CC(C3)C1)C2 [Compound 278] | 45.568% |  | 1210 nM | 
24 | Cn1nc(C(C)(C)C)cc1NC(=O)CN1CC2CCC(C1)N2CC(=O)NC(C)(C)C [Compound 6] | 10.343% |  |  | 
25 | CC(C)(C)NC(=O)CN1CCC(CNc2nccc3c(Cl)cc(F)cc23)CC1 [Compound 124] | 67.808% |  | 645 nM | 
26 | O=C(CN1C[C@@H]2C[C@H]1CN2CC(=O)NC1(C(F)(F)F)CC1)Nc1ccc(Cl)c(OC(F)F)c1 [Compound 358] |  |  | 172 nM | 
27 | CC(C)(C)NC(=O)CN1C2CC1CN(CC(=O)NC13CC4CC(CC(Cl)(C4)C1)C3)C2 [Compound 345] | 42.634% |  | 1190 nM | 

Row | SMILES | % Inhibition (Single Point Data) [1] | IC50 | IC50 [2] | % Inhibition (Single Point Data) [3]
28 | CC(C)(C)NC(=O)CN1CC2CC1CN2CC(=O)Nc1cc(Cl)ccc1F (stereo not drawn) [Compound 48] | 28.07% |  | 1340 nM | 
29 | COCC(C)(C)NC(=O)CN1C2CCC1CN(Cc1nc3c(Cl)cc(F)cc3[nH]1)C2 [Compound 80] | 96.659% |  |  | 
30 | COc1cccc(NC(=O)CN2CC3CC2CN3CCNC(=O)C2(C(F)(F)F)CC2)c1 (stereo not drawn) [Compound 237] | 35.987% |  |  | 
31 | CC(C)(C)NC(=O)CN1C[C@@H]2C[C@H]1CN2CC(=O)Nc1cc(F)c(F)c(OC(F)F)c1 [Compound 356] |  |  | 74 nM | 
32 | CC(C)(C)NC(=O)CN1C[C@H]2C[C@@H]1CN2CC(=O)Nc1ccc(F)c(Cl)c1 [Compound 26] | 57.68% |  | 827 nM | 
33 | CC(C)(C)NC(=O)CN1CC[C@@H](CNc2nccc3ccc(Cl)cc23)CC1=O [Compound 46] |  |  | 600 nM | 
34 | CC(C)(C)NC(=O)CN1C2CC1CN(CC(=O)Nc1ccn(Cc3ccc(C#N)cn3)n1)C2 [Compound 313] | −11.969% |  |  | 
35 | CC(C)(C)NC(=O)CN1C[C@@H]2C[C@H]1CN2CC(=O)Nc1ccc(F)c(OC(F)F)c1 [Compound 247] | 97.344% |  |  | 
36 | Cn1nc(C2CC2)cc1NC(=O)CN1CC2CCC(C1)N2CC(=O)NC(C)(C)C [Compound 4] | 15.896% |  |  | 
37 | COc1cc(F)cc(NC(=O)CN2CC3CC(C2)N3CC(=O)NC(C)(C)C)c1 [Compound 211] | 81.284% |  | 233 nM | 
38 | CC(C(=O)Nc1ccc(F)c(OC(F)F)c1)N1C[C@@H]2C[C@H]1CN2CC(=O)NC(C)(C)C (stereo partly drawn) [Compound 263] | 90.098% |  | 234 nM | 
39 | CC(C)(C)NC(=O)CN1C2CC1CN(CC(=O)Nc1ccc(F)c(C(F)(F)F)c1)C2 [Compound 249] | 99.326% |  | 1010 nM | 
40 | N#CC1(CN2C3CC2CN(CC(=O)Nc2cc(F)cc(Cl)c2)C3)CCC(F)(F)CC1 [Compound 52] | 51.764% |  | 853 nM | 
41 | CC(C)(C)NC(=O)CN1C2CC1CN(CC(=O)Nc1cccc(OC(F)F)c1)C2 [Compound 12] | 81.341% |  |  | 
42 | CC(C)(C)NC(=O)CN1C[C@H]2C[C@@H]1CN2CC(=O)Nc1ccc(F)c(OC(F)F)c1 [Compound 246] | 49.246% |  | 1070 nM | 
43 | CC(C(=O)Nc1cc(F)cc(OC(F)F)c1)N1C[C@@H]2C[C@H]1CN2CC(=O)NC(C)(C)C (stereo partly drawn) [Compound 265] | 88.764% |  |  | 
44 | CC(C)(C)NC(=O)CN1C[C@@H]2C[C@H]1CN2C(=O)NCC12CC3CC(CC(C3)C1)C2 [Compound 290] | 8.7515% |  |  | 
45 | COc1cc(NC(=O)CN2CC3CC(C2)N3CC(=O)NC(C)(C)C)cc(F)c1F [Compound 353] |  |  | 97 nM | 
46 | O=C(CN1CC2CC(C1)N2CCS(=O)(=O)c1ccccc1)Nc1cc(F)cc(Cl)c1 [Compound 171] | 34.047% |  | 1420 nM | 
47 | COc1cc(NC(=O)CN2C[C@@H]3C[C@H]2CN3CC(=O)NC2(C(F)(F)F)CC2)cc(F)c1F [Compound 351] |  |  | 131 nM | 
48 | OC1(CN2CCN(Cc3nc4c(Cl)ccc(F)c4[nH]3)CC2)CCC(F)(F)CC1 [Compound 159] | 76.669% |  | 250 nM | 
49 | CC(C)(C)CCN1CCN(Cc2nc3c(Cl)cc(F)cc3[nH]2)CC1 [Compound 73] | 84.745% |  | 188 nM | 
50 | O=C(CN1C[C@H]2C[C@@H]1CN2CC(=O)NC1(C(F)(F)F)CC1)Nc1cc(F)cc(Cl)c1 [Compound 20] | 56.816% |  | 1020 nM | 
51 | Fc1cc(Cl)c2nc(CN3CCN(Cc4cc5ccccc5[nH]4)CC3)[nH]c2c1 [Compound 72] | 81.94% |  | 395 nM | 
52 | CN(C(=O)CN1C2CC1CN(Cc1nc3c(Cl)cc(F)cc3[nH]1)C2)C(C)(C)C [Compound 101] | 96.57% |  |  | 
53 | CC(C(=O)Nc1ccc(F)c(Cl)c1)N1C[C@@H]2C[C@H]1CN2CC(=O)NC(C)(C)C (stereo partly drawn) [Compound 264] | 85.955% |  | 242 nM | 
54 | C[C@H](NC(=O)CN1CC2CC(C1)N2CC(=O)NC(C)(C)C)C12CC3CC(CC(C3)C1)C2 [Compound 325] | 22.59% |  | 2600 nM | 
